Counter-ions that a name gives are not always drawn. Each block holds one compound with its values, some of them ahead of it.
Experiments:
RLS patients = details: cited from earlier work
[1] = in vivo; cited from earlier work
people with RLS = details: recent studies quoted from RLS Internet site; cited from earlier work

melting point: 210 to 213 °C
SMILES: CN[C@@H]1Cc2cccc3[nH]c(=S)n(c23)C1

melting point: 195 to 196 °C
SMILES: CN[C@@H]1Cc2cccc3[nH]c(=S)n(c23)C1.O=C(O)/C=C\C(=O)O

SMILES: N[C@@H](Cc1ccc(O)c(O)c1)C(=O)O [L-dopa]
suppression of RLS (RLS patients; L-dopa 100 mg with carbidopa 10 mg, in most cases, rebound of PLMS in last part of night): completely suppresses RLS
effect on RLS at bedtime and PLMS throughout the night (RLS patients; administered twice at night, PSG recordings, double-blind): significant reduction

SMILES: CCCN1C[C@H](CSC)C[C@@H]2c3cccc4[nH]cc(c34)C[C@H]21 [Pergolide]
half-life [1]: 7 to 16 h

SMILES: CCCN1C[C@H](CSC)C[C@@H]2c3cccc4[nH]cc(c34)C[C@H]21 [Permax®, pergolide mesylate]
effectiveness in treating RLS relative to Sinemet (people with RLS): as effective as Sinemet®
potential for causing augmentation (people with RLS): 10%
